In patent publication US12227713B2, “Polysiloxane hydraulic fluids” (THE BOEING COMPANY, priority 2016, dated 2025):

Test: Viscosity (ASTM D445)
Type: physicochemical
From the text: The viscosity may be determined using the protocol in ASTM D445, and for example ASTM D445FL1 for low temperature measurements.

Structure (SMILES): CCCCCCCCCCP(=O)(OCCCC)OCCCC [DiButyl Decane Phosphonate (AP32), DiButyl Decane Phosphonate]
- 38 C. Viscosity (cP): 4.91 ± 0.01 cP
- Room Temp (25 C.) Viscosity (cP): 6.97 ± 001 cP
- −54 C. Viscosity (cP): 706.2 ± 5.4 cP

Structure (SMILES): CCCCCCCCCCP(=O)(OCC)OCC [DiEthyl Decane Phosphonate (AP28), DiEthyl Decane Phosphonate]
- 38 C. Viscosity (cP): 4.89 ± 0.01 cP
- Room Temp (25 C.) Viscosity (cP): 7.02 ± 0.04 cP
- −54 C. Viscosity (cP): Frozen <3 hr
